The values below come from patent US10092556B2, “Piperidine compound or salt thereof” (TAIHO PHARMACEUTICAL CO., LTD., priority 2012, dated 2018).

The structures appear in SMILES notation.

The test system of series [1] is human-derived stomach cancer cell line SNU-16. Nature of the series: Inhibitory effect on cell proliferation (CellTiter-Glo, 72 hours). To be noted: SNU-16, 72 hours. It is filed as cell-based. The source says:
Cells of the human-derived stomach cancer cell line SNU-16 were each routinely subcultured in the 10% fetal bovine serum (FBS)-containing RPMI-1640 medium and 10% FBS-containing Dulbecco's Modified Eagle Medium (DMEM) in order to maintain cell density of no more than 80%. In order to initiate a test for the inhibitory activity on cell proliferation, cells were each suspended in the aforementioned medium and seeded in each well of a 96-well flat bottom plate (black plate with a transparent bottom) at 2,500 or 3,000 cells per well. The cells were then cultured for one day at 37° C. in an incubator containing 5% carbon dioxide gas. The next day, the compound of the present invention and the subject compound were dissolved in DMSO, and using DMSO, the test compounds were serially diluted to a concentration of 200 times the final concentration. The solution of the test compounds in DMSO was diluted with the medium used for culturing, and then added to each well of the cell culture plate at a final DMSO concentration of 0.5%. The cells were cultured for 72 hours at 37° C. in an incubator containing 5% carbon dioxide gas. The cells were counted at the time of addition of the test compounds and 72 hours after culturing using the CellTiter-Glo Luminescent Cell Viability Assay kit (the product of Promega) based on the protocol recommended by Promega. The reagent included in the kit was added to each plate, followed by stirring, and the plates were left to stand at room temperature for 10 minutes. Upon completion of the reaction, the luminescence signal was measured using a microplate reader.
The cell proliferation inhibitory rate was calculated from the following formula and the concentration of the test compound at which the cell proliferation was inhibited by 50% (GI50 (nM)) was determined. Cell proliferation inhibitory rate (%)=(C−T)/(C−C0)×100 T: Luminescence signal in a well with the addition of the test compound C: Luminescence signal in a well without the addition of the test compound C0: Luminescence signal in a well measured before the addition of the compound
A general note: ATP-based viability assays read luminescence as a measure of living cells.

A short description of series [2]: Evaluation of oral absorbability (plasma concentration after oral administration). To be noted: BALB/cA mouse, 0.5% HPMC, 0.5-6 hours. It is filed as in vivo. On the procedure:
The test compound was suspended or dissolved in 0.5% HPMC and orally administered to a BALB/cA mouse. The blood was drawn from the retro-orbital venous plexus 0.5, 1, 2, 4, and 6 hours after oral administration to obtain plasma. The concentration of the compound in the plasma thus obtained was measured by LCMS and the oral absorbability was evaluated.

Series [3] deals with human uterine cervical cancer cell line (Hela-Luc). Nature of the series: Evaluation of the anti-tumor effect (2), Hela-Luc subcutaneous transplant in nude mouse. It is filed as in vivo. To be noted: Day 11, paclitaxel 20 mg/kg iv day 1.
Series [4] shares this test system. Nature of the series: Evaluation of the anti-tumor effect (1), Hela-Luc subcutaneous transplant in nude mouse. The note with it: Day 23; paclitaxel 30 mg/kg iv day 1; compound 60 mg/kg oral twice a day on day 2 and 3.
From the text: The luciferase-introduced human uterine cervical cancer cell line (Hela-Luc) was subcutaneously transplanted into a nude mouse, and when the volume of the grafted tumor reached 100 to 200 mm^3, five mice in one group were grouped into the single drug administration group and combinational administration group by a randomized stratification method so as to achieve a uniform tumor volume in each group (day 1). […] In order to compare the anti-tumor effect brought about by drug administration, setting the tumor volume at the time of grouping at 1, the relative tumor volume (RTV) was determined in accordance with the following formula as a rate of tumor proliferation. RTV=(Tumor volume on the day of measurement of tumor volume)/(Tumor volume at the time of grouping)
Meanwhile, as the index of systemic toxicity caused by drug administration, the body weight change (BWC) was used. BWC (%)=([(Body weight of mouse on the day of body weight measurement)−(Body weight of mouse at the time of grouping)]/(Body weight of mouse at the time of grouping))×100
Setting [5] is: Table 22, Compound 13 30 mg/kg oral twice a day on day 2 and 3.
The mark [6] stands for this setting: Table 23, Compound 22 100 mg/kg single, 60 mg/kg in combination, oral twice a day on day 2 and 3.

With `Cc1cc(Nc2nc(CC3(C(=O)O)CCN(C(=O)c4cccc(Cl)c4Cl)CC3)ccc2F)n[nH]1` [Example 1, 1-(2,3-dichlorobenzoyl)-4-((5-fluoro-6-(5-methyl-1H-pyrazol-3-ylamino)pyridin-2-yl)methyl)piperidine-4-carboxylic acid], halving of growth in series [1] (GI50) required 120 nM. For the same compound, the “oral absorbability (plasma concentration after oral administration)” value (from here on “oral absorbability”) in series [2] was “favorable oral absorbability”.
Regarding `COc1ccc(CC2(C(=O)O)CCN(C(=O)c3cccc(Cl)c3F)CC2)nc1Nc1cc(C)[nH]n1` [Example 11, 1-(3-chloro-2-fluorobenzoyl)-4-((5-methoxy-6-(5-methyl-1H-pyrazol-3-ylamino)pyridin-2-yl)methyl)piperidine-4-carboxylic acid], the “oral absorbability” value in series [2] is recorded as “favorable oral absorbability”.
Same read-out and setting: to `Cc1cc(Nc2nc(CC3(C(=O)O)CCN(C(=O)c4cccc(Cl)c4F)CC3)ccc2Cl)n[nH]1` [Example 12, 1-(3-chloro-2-fluorobenzoyl)-4-((5-chloro-6-(5-methyl-1H-pyrazol-3-ylamino)pyridin-2-yl)methyl)piperidine-4-carboxylic acid] belongs “favorable oral absorbability”.
For `Cc1cc(Nc2nc(CC3(C(=O)O)CCN(C(=O)c4cccc(Cl)c4F)CC3)ccc2F)n[nH]1` [Example 13, 1-(3-chloro-2-fluorobenzoyl)-4-((5-fluoro-6-(5-methyl-1H-pyrazol-3-ylamino)pyridin-2-yl)methyl)piperidine-4-carboxylic acid], in series [1], the GI50 worked out at 60 nM. Also, in series [2], the “oral absorbability” value is recorded as “favorable oral absorbability”. Besides, the “BWC (body weight change)” value in series [3] (setting [5]) stood at 6.0%.
In turn, `Cc1cc(Nc2nc(CC3(c4noc(C)n4)CCN(C(=O)c4cccc(Cl)c4F)CC3)ccc2F)n[nH]1` [Example 22, (3-chloro-2-fluorophenyl)(4-((5-fluoro-6-(5-methyl-1H-pyrazol-3-ylamino)pyridin-2-yl)methyl)-4-(5-methyl-1,2,4-oxadiazol-3-yl)piperidin-1-yl)methanone] yielded a GI50 in series [1] of 970 nM. Also, in series [2], the “oral absorbability” value was “favorable oral absorbability”. Also, in series [3] (setting [6]), the “BWC (body weight change)” value worked out at 6.9%.
Take `CC(=O)O[C@H]1C(=O)[C@@]2(C)[C@H]([C@H](OC(=O)c3ccccc3)[C@]3(O)C[C@H](OC(=O)[C@H](O)[C@@H](NC(=O)c4ccccc4)c4ccccc4)C(C)=C1C3(C)C)[C@]1(OC(C)=O)CO[C@@H]1C[C@@H]2O` [Paclitaxel, paclitaxel, reference compound]: the “BWC (body weight change)” value turned out to be 5.4% in series [3] (setting [5]), 7.8% in series [3] (setting [6]) and 3.0% in series [4].

The GI50 is the concentration at which growth is held to half of that of the control.
